Holding throughout (type): cell-based, mouse
For data set [1], the system named is day 17 EB derived hepatocyte lineage cells (ES cell line D3). The data set is described as follows: In situ indirect immunofluorescent intracellular albumin analysis. More on the design: key to Intracellular ALB: A (+) represents at least one time point of significant expression or secretion function in the three conditions.; A (−) represents functions which were absent on all experimental days. As to the method:
In order to induce differentiation, cells were suspended in Iscove's modified Dulbecco's medium (Gibco) containing 20% fetal bovine serum (Gibco), 4 mM L-glutamine (Gibco), 100 U/ml penicillin, 100 U/ml streptomycin (Gibco), 10 ug/ml gentamicin (Gibco). Embryoid bodies were formed and cultured for two days using the hanging drop method (1×10^3 ES cells per 30 ul drop). Hanging drops where transferred to suspension culture in 100 mm petri dishes and cultured for an additional 2 days. The EB's were then plated, one EB per well, in 6 well tissue culture polystyrene plates (BD-Biosciences) for an additional 14 days. For secondary culture day 17 EBs cells were detached following incubation with 0.5 ml of trypsin (Gibco) for three minutes, resulting in a single cell suspension, and subsequently the addition of IMDM media. Cells from day 17 EB's were used because it has been observed that hepatocyte function is greatest on day 17. Cells were then re-plated in 6 well tissue culture polystyrene (BD-Biosciences) at an initial seeding density of 5×10^4 day 17 cells per well for further analysis. Culture medium was changed every forty eight hours. When OSM and SNAP were supplemented, 10 ng/ml OSM and 250 μM SNAP were added to the culture medium. When collagen sandwich culture was used, rat tail type I collagen (BD-Biosciences) gels were prepared by distributing 350 μL of collagen gel solution (3 parts 1.33×DMEM, pH 7.4, and 1 part collagen solution at 4 mg/mL, chilled on ice and mixed immediately prior to use) evenly over one well of a six well plate (BD-Biosciences) and incubated at 37° C. for at least one hour before use. 5×10^5 cells were seeded in 2 mL of IMDM media on day 0 and an additional 350 μL of collagen gel solution was distributed over the cells after 1 day of culture. Therefore, the second layer of collagen is added on day 1 of secondary culture protocol. One hour of incubation at 37° C. was allowed for gelation and attachment of the second gel layer before the medium was replaced. Culture medium was changed every forty eight hours. […]

Data set [2] shares this test system. Nature of the data set: In situ indirect immunofluorescent cytokeratin-18 analysis. Details: key to CK18: A (+) represents at least one time point of significant expression or secretion function in the three conditions.; A (−) represents functions which were absent on all experimental days. The procedure:
(§1) In order to induce differentiation, cells were suspended in Iscove's modified Dulbecco's medium (Gibco) containing 20% fetal bovine serum (Gibco), 4 mM L-glutamine (Gibco), 100 U/ml penicillin, 100 U/ml streptomycin (Gibco), 10 ug/ml gentamicin (Gibco). Embryoid bodies were formed and cultured for two days using the hanging drop method (1×10^3 ES cells per 30 ul drop). Hanging drops where transferred to suspension culture in 100 mm petri dishes and cultured for an additional 2 days. The EB's were then plated, one EB per well, in 6 well tissue culture polystyrene plates (BD-Biosciences) for an additional 14 days. For secondary culture day 17 EBs cells were detached following incubation with 0.5 ml of trypsin (Gibco) for three minutes, resulting in a single cell suspension, and subsequently the addition of IMDM media. Cells from day 17 EB's were used because it has been observed that hepatocyte function is greatest on day 17. Cells were then re-plated in 6 well tissue culture polystyrene (BD-Biosciences) at an initial seeding density of 5×10^4 day 17 cells per well for further analysis. Culture medium was changed every forty eight hours. When OSM and SNAP were supplemented, 10 ng/ml OSM and 250 μM SNAP were added to the culture medium. […]

The test system is the same in data set [3]. The data set is described as follows: Sandwich ELISA for detection of albumin secretion. More on the design: key to ALB Secretion: A (+) represents at least one time point of significant expression or secretion function in the three conditions.; A (−) represents functions which were absent on all experimental days. The procedure:
as §1, with “17.” for “17. Cells were then re-plated in 6 well tissue culture polystyrene (BD-Biosciences) at an initial seeding density of 5×10^4 day 17 cells per well for further analysis. Culture medium was changed every forty eight hours. When OSM and SNAP were supplemented, 10 ng/ml OSM and 250 μM SNAP were added to the culture medium.”
In order to detect secreted albumin within the media supernatants obtained on each of the analysis days, we used a commercially available mouse albumin ELISA kit (Bethyl Laboratories, #E90-134). […] Absorbance readings were obtained using a Biorad (Hercules, Calif.) Model 680 plate reader with a 450 nm emission filter. Albumin values were normalized to the cell number recorded on the day of media sample collection.
In general terms: ELISA stands for enzyme-linked immunosorbent assay.

Data set [4] shares this test system. The data set is described as follows: Urea secretion. More on the design: key to Urea: A (+) represents at least one time point of significant expression or secretion function in the three conditions.; A (−) represents functions which were absent on all experimental days. The procedure:
as §1, with “analysis.” for “analysis. Culture medium was changed every forty eight hours. When OSM and SNAP were supplemented, 10 ng/ml OSM and 250 μM SNAP were added to the culture medium.”
Media samples were collected on all analysis days. […] Absorbance readings were obtained using a Biorad (Hercules, Calif.) Model 680 plate reader with a 585 nm emission filter. Urea values were normalized to the cell number recorded on the day of media sample collection.

The test system is the same in data set [5]. Nature of the data set: Cytochrome P450 activity (resorufin o-dealkylase, BROD/MROD). More on the design: key to CYP450: A (+) represents at least one time point of significant expression or secretion function in the three conditions.; A (−) represents functions which were absent on all experimental days. As to the method:
On evaluation days 4, 6, 8 and 10 days in secondary culture, cells were re-plated into 12 well plates. 3-Methylcholanthrene was used at a concentration of 2 μM (Sigma-Aldrich) for 48 hours prior to the addition of resorufin as an inducer of cytochrome P450 activities. Cytochrome P450-dependent resorufin o-dealkylase activity (BROD, PROD, EROD, and MROD) was measured using resorufin substrates namely pentoxy-, benzyloxy-, ethoxy-, and methoxyresorufin from a Resorufin Sampler Kit (Invitorgen, Carlsbad, Calif.). […] The fluorescence of the plate was measured using a fluorescence plate reader (DTX880, Beckman Coltour, Fullerton, Calif., ext. 530 nm and emis. 590 nm) at the end of min incubation. A standard curve of resorufin fluorescence was constructed using concentrations ranging from 1 to 1,000 nmol in EBSS. […] The constructed standard curve was used to convert the fluorescence values obtained from the plate reader to nanomoles of resorufin. Rate of formation of resorufin, as calculated from the early linear increase in the fluorescence curve, was defined as cytochrome P450 activity and expressed as nmol/min.
Cytochrome P450 enzymes play a key role in detoxifying xenobiotics and were used in these studies to asses hepatocyte function. […] BROD and MROD activity can be determined from the enzymatic conversion of resorufin.

Data set [6] has the same test system. Nature of the data set: Glycogen storage. Details: key to Glycogen: A (+) represents at least one time point of significant expression or secretion function in the three conditions.; A (−) represents functions which were absent on all experimental days.
Data set [7] shares this test system. Nature of the data set: Cell number / proliferation in secondary culture. Particulars: collagen sandwich configuration, within 10 days. The procedure:
as §1, with “media.” for “media. Cells from day 17 EB's were used because it has been observed that hepatocyte function is greatest on day 17. Cells were then re-plated in 6 well tissue culture polystyrene (BD-Biosciences) at an initial seeding density of 5×10^4 day 17 cells per well for further analysis. Culture medium was changed every forty eight hours. When OSM and SNAP were supplemented, 10 ng/ml OSM and 250 μM SNAP were added to the culture medium.”
Therefore, cultures were established to study the maintenance and augmentation of hepatocyte like function previously observed after 17 days of spontaneous EB mediated differentiation. Hepatocyte lineage maintenance was initially assessed by examining the dynamics of cell growth following removal of cells from their primary EB culture and re-plating into tissue culture polystyrene. 5×10^4 cells from day 17 EB cultures were re-plated into one well of a six well plate and evaluated on days 4, 6, 8 and 10 days post re-plating. […]

Setting [8] is: polystyrene secondary culture, 10 ng/ml OSM or 250 μM SNAP, days 4-10.
The mark [9] stands for this setting: polystyrene culture, OSM or SNAP supplemented.

Oncostatin-M [OSM]: the “albumin expression (percentage of cells expressing albumin)” value in data set [1] (collagen sandwich culture, 10 days post re-plating) turned out to be 80%. Also, the “Intracellular ALB” value in data set [1] (setting [8]) is “+”. Besides, in data set [1] (polystyrene secondary/tertiary culture, supplemented, SNAP at a lower level), the “Time for which ALB expression was maintained” value is listed as “up to eight”. For the same substance, in data set [2] (setting [9]), the CK18 expression entry was “not detected at any level”. Besides, the CK18 result in data set [2] (setting [8]) is given as “−”. Further, the albumin secretion result in data set [3] (setting [9]) is recorded as “not detected at any level”. The “ALB Secretion” value in data set [3] (setting [8]) was “−”. Further, the “Urea secretion time course” value in data set [4] (polystyrene culture, supplemented) is given as “greatest at day eight”. The Urea result in data set [4] (setting [8]) is “+”. Also, the CYP450 mediated detoxification entry in data set [5] (setting [9]) is given as “not detected at any level”. Besides, in data set [5] (setting [8]), the CYP450 entry is “−”. Besides, the glycogen storage result in data set [6] (setting [9]) is “not detected at any level”. Further, in data set [6] (setting [8]), the Glycogen result is “−”. Moreover, the “cell number reached from 5×10^4 Day 17 cells” value in data set [7] was 1×10^6 cells.
